≈ marks a conversion by molar mass, not a printed value. Entries after “also recorded” stand apart in the source; their conditions may differ. Like-named read-outs stand apart in the source and are kept apart here. Square brackets hold non-standard residues; d marks the D form. Ends that are not written are not given here. Peptide text beside a SMILES is read from it. AEEA = NCCOCCOCC(=O)O
What was measured:
[1] = Toxicity of peptides injected intraperitoneally; format: in vivo, mice; details: intraperitoneal, 10 or 20 μM
Procedure: (§1) FIGS. 23A, B show the efficacy and toxicity of modified peptides in mice. […] The survival of mice injected intraperitoneally with iron dextran at 48 h after intraperitoneal injection of 10 or 20 μM of the modified peptides. […] Vibrio vulnificus (V. v.) strain CMCP6 was injected at 1×10^6 CFU. […] All mice receive iron dextran by intraperitoneal injection. Where indicated, 1 h later 10^6 bacterial CFU in 100 μL was injected into the peritoneum (opposite side). 1 h later, 100 μL of the peptide at the indicated concentration was administered on the same side as the bacterial injection.
(§2) Since B22a was effective in preventing infection of V. vulnificus in a surgical incision model, we tested it for efficacy for systemic infection in a mouse septicemia model (1). Groups of mice (strain CD-1) were first injected with […], followed 1 h later with an intraperitoneal injection of 1×10e6 colony forming units of V. vulnificus strain […]. The B22a was then injected intraperitoneally 1 h later and morbidity was monitored hourly for two days.
PB22N and other modified peptides were tested in a septicemic mouse model. V. vulnificus is a highly-pathogenic bacterium, causing septicemia and high mortality. In mice injected intraperitoneally with V. vulnificus, the majority of the mice had to be euthanized within 24 h due to severe symptoms associated with septicemia (FIG. 23B). […] PB22N was effective in preventing mice from succumbing to systemic infection by the highly virulent V. vulnificus.

V. vulnificus = assay: Iron-dextran septicemia model; format: in vivo, mice (strain CD-1); details: 10 or 20 μM intraperitoneally 1 h after V. vulnificus
Procedure: as §1, §2
PB22N and other modified peptides were tested in a septicemic mouse model. V. vulnificus is a highly-pathogenic bacterium, causing septicemia and high mortality. In mice injected intraperitoneally with V. vulnificus, the majority of the mice had to be euthanized within 24 h due to severe symptoms associated with septicemia (FIG. 23B). […]

Pseudomonas aeruginosa = format: cell-based
Procedure: (§4) Antimicrobial activity was determined using the broth microdilution method based on the general recommendation of the Clinical and Laboratory Standards Institute. Bacteria were grown in Mueller-Hinton broth at 37° C. until OD625 reached 0.06, and then bacteria were further diluted into 1:20 for later use. […] 10 microliter (μL) of diluted bacteria was mixed with 90 μL of peptides at varying concentrations followed by incubation at 37° C. for 16-18 hours. The MIC is the lowest peptide concentration at which visible growth was inhibited. The MIC value was determined at least twice in independent experiments and typically in 3-4 assays.

[2] = system: twenty representative Gram-negative bacteria of the Enterobacteriacea; assay: MIC panel; format: cell-based; details: Table 10
Source text: The lack of efficacy of B22a in inhibiting systemic bacterial infection may have been due to it not being sufficiently stable in vivo. Therefore, three peptides were synthesized that contain the B22 amino acid sequence with additional modifications. Peptide AB22a (SEQ ID No. 32) has an N-terminal acetyl group (CH3C(O)) and a C-terminal amide (NH2). Peptide AB22P (SEQ ID No. 33) has an N-terminal acetyl group and a C-terminal polyethyleneglycol (PEG) (PEG=conjugated 8-amino 3,6-dioxaoctanoic acid). Peptide PB22N (SEQ ID No. 34) has a PEG at the N-terminus. In vitro, PB22N was effective in inhibiting the growth of the majority of the Gram-negative bacteria of the Enterobacteriacea. […] PB22N was also efficacious in inhibiting antibiotic-resistant clinical isolates of Klebsiella pneumoniae (Table 11).

E. coli ATCC 25922 = assay: Bactericidal activity, viable colony formation; format: cell-based, Escherichia coli; details: for Viable colony formation, E. coli ATCC 25922 / Fold reduction, E. coli ATCC 25922: 2 μM peptide for 30 min; for Fold reduction, E. coli ATCC 25922: versus mock
Procedure: (§3) The broth dilution assay tested for the inhibition of growth. To determine whether B22a has bactericidal activity, viable colonies that formed after bacteria were treated with 2 μM of B22a for 30 min were enumerated (Table 7). Peptide B22a reduced viable colony formation by E. coli by over 2 orders of magnitude. B22a reduced viable colony formation by P. aeruginosa by over 3 orders of magnitudes. B22a, like its predecessor B22, is a bactericidal for Gram-negative bacteria.

P. aeruginosa PAO1 = assay: Bactericidal activity, viable colony formation; format: cell-based, Pseudomonas aeruginosa; details: for Viable colony formation, P. aeruginosa PAO1 / Fold reduction, P. aeruginosa PAO1: 2 μM peptide for 30 min; for Fold reduction, P. aeruginosa PAO1: versus mock
Procedure: as §3

E. coli Top10pHNSHP45 = assay: Killing of colistin-resistant E. coli harboring mcr-1 plasmid; format: cell-based, Escherichia coli; details: for Reduction of Top10pHNSHP45 colony formation: 5 minute incubation (FIG. 12B)
Procedure: 1×10^5 CFUs of the bacteria were incubated for 30 min with the concentration of the peptides or colistin shown. Approximately 500 CFUs were then added as a droplet onto nonselective media for 18 h. […] The numbers are the means of three independent assays and those in parenthesis are the range for one standard deviation.
Each antimicrobial peptide was assayed at a final concentration of 2 μM. The number of viable bacterial colonies were determined by plating on a non-selective media and enumerated. Each result is the average of three independent assays. The fold reduction in the colony forming units (CFU) was calculated by dividing the number of CFUs in the mock-treated sample with the number in the peptide-treated samples.

P. aeruginosa = assay: Growth rate of culture, optical density; format: cell-based, Pseudomonas aeruginosa; details: 30 nM peptide
Procedure: FIG. 21 is a graph showing of peptide B22 (mock), B22a and B22m1 (each at […]) can reduce bacterial growth of P. aeruginosa, wherein the bacteria were grown in a plate reader at 37° C. and shaken. Optical density was monitored every ten (10) minutes to track the growth rate.
This low concentration of the peptide should further decrease the possibility of peptide oligomerization, as oligomerization should be dependent on the concentration of the peptide. The growth of the bacterial culture was then monitored over time. […] The cell division time of E. coli and Enterobacter cloacae were also in the absence or presence of 100 nM of B22a. The presence of B22a increased the doubling time of both bacterial by more than 2-fold. […] Should B22a and B22m1 inhibit bacteria growth as well as kill bacteria through the formation of higher order structures in the membrane, the peptides may have multiple mechanisms to act against bacteria survival. Peptides that act by multiple mechanisms may result in lower bacterial resistance to the peptides.

Vibrio vulnificus = assay: Lethal sepsis model, surgical incision infection; details: no V. vulnificus
Procedure: The number of symptom-less mice in cages of 5 mice were recorded as a function of time. About 50 colony forming units of V. vulnificus were introduced into a surgical incision. The antimicrobial peptide B22 was introduced into the incision at 5 μM 1 h after the introduction of V. vulnificus to the surgical incision.
A lethal sepsis model from Vibrio vulnificus infection of CD-1 mice was selected. […] Cages of 5 mice were monitored every 2 h.

19 Gram-negative strains = assay: MIC panel, number of strains inhibited; format: cell-based; details: of 19 Gram-negative strains
Procedure: as §4

Toll-like receptor 3 = assay: Poly(I:C)-induced cytokine production in BEAS-2B cells, ELISA; format: cell-based, human; details: peptide 2 μM
Procedure: Lung epithelial BEAS-2B cells were induced with poly(I:C) at 0.1 μg/ml and the amount of IL-6 secreted into the media 20 h later was assessed by ELISA. Where present, the antimicrobial peptide was at a final concentration of 2 μM.
IL-6 production was quantified by ELISA using the OptEIA™ kit (BD Biosciences). A typical assay used 2×10^4 BEAS-2B cells/well grown for 24 h in flat-bottom 96-well plates. Poly(I:C) was added to a final concentration of 0.13 μg/ml.

Cultured human cells = assay: MTT cytotoxicity assay; format: cell-based
[3] = system: human red blood cells (hRBCs); assay: Hemolytic activity; format: cell-based
Procedure: The amount of hemoglobin released was measured by the absorbance at 435 nm after a 60-minute incubation with the antimicrobial peptide. The percentage of hRBC lysis was normalized to the amount hemoglobin released by the suspension of the hRBCs in deionized water. The background amount of hRBC lysis was determined by adding phosphate buffered saline (PBS) at the same volume as 8 μM of the peptide to the hRBC for 1 h.
The hemolytic activities of peptides were determined using human red blood cells (hRBCs) (Innovative Research, Inc., cat. # IPLA-WB3-18103). The hRBCs were washed three times with PBS and then resuspended in PBS. The hRBCs solution was mixed with serial dilutions of the peptides in PBS buffer. The reaction mixtures were incubated for 45 min at 37° C. After centrifugation at 94×g for 10 min, the intact hRBCs were pelleted and the hemoglobin released from hRBCs was monitored by measuring the absorbance of the supernatant at 415 nm. The background level of absorbance was measured in sampled incubated with only PBS buffer. 100% hemolysis was determined in sampled incubated with water. The percentage of hemolysis was calculated according to the following equation. Percentage of hemolysis=[(Asample−Ablank)/Awater]*100%
Mammalian cells are thought to be less susceptible to cathelicidin peptides in part because the composition of their membrane will be less likely to interact with the peptides. To address this directly, human red blood cells (hRBCs) were tested for lysis after a 45-minute incubation with the peptides. The total lysis of hRBCs was determined by adding water to the cells. The amount of lysis during handling was determined by the addition of phosphate buffered saline at the same volume as that of the peptides.

V. fischeri = assay: Vibrios killing activity; format: cell-based; details: increasing concentrations of SMAP-29C
Procedure: (§5) Vibrios bacteria such as V. angustum or V fischeri were cultured in LM at 30° C. The V. angustum culture was 200× diluted, V. fischeri culture was 40× diluted. […] The peptides were incubated with the bacteria for 1 hour at 30° C. before plated into the bacteria culture (100 μL peptides and 20 μL mock). The cultures were incubated overnight and Colony Forming Units (CFUs) were counted.

V. harveyi = assay: Vibrio growth with increasing peptide concentration; format: cell-based; details: increasing concentrations of SMAP-29C
Procedure: Bacteria within Vibrio genus are highly sensitive to the SMAP-29C peptide. Various strains of Vibrio were treated with increasing concentrations of SMAP-29C (See FIG. 7).

V. angustum = assay: Vibrios killing activity; format: cell-based; details: increasing concentrations of SMAP-29C
Procedure: as §5

Procedure for Enterobacter cloacae: as §4
Procedure for Enterococcus faecalis: as §4
Procedure for Escherichia coli: as §4
Procedure for Klebsiella pneumoniae: as §4
Procedure for Serratia marcescens: as §4
Procedure for Staphylococcus aureus: as §4

CC[C@H](C)[C@H](NC(=O)[C@@H](NC(=O)[C@@H]1CCCN1C(=O)[C@H](CO)NC(=O)[C@H](CC(C)C)NC(=O)[C@H](CCCCN)NC(=O)[C@H](CCCCN)NC(=O)[C@H](Cc1ccccc1)NC(=O)[C@H](CC(C)C)NC(=O)[C@H](CCCCN)NC(=O)[C@H](CCCCN)NC(=O)[C@H](CC(C)C)NC(=O)[C@H](CCCCN)NC(=O)[C@H](CCCCN)NC(=O)[C@H](CCCNC(=N)N)NC(=O)[C@H](Cc1ccccc1)NC(=O)COCCOCCN)C(C)C)C(=O)N1CCC[C@H]1C(=O)N[C@@H](CC(C)C)C(=O)N[C@@H](CC(C)C)C(=O)N[C@@H](CCCCN)C(=O)N[C@@H](CC(C)C)C(=O)NCC(N)=O [PB22N] (H-[AEEA]FRKKLKKLFKKLSPVIPLLKLG-NH2)
Toxicity signs in mice injected with peptide [1]: no obvious symptoms were observed; also recorded: no obvious effects on mice behavior or appearance
Outcome in mouse septicemia model (V. vulnificus): survived and did not exhibit symptoms of infection
Minimal inhibitory concentration (Escherichia coli): 1 µM
Minimal inhibitory concentration (Pseudomonas aeruginosa): 1 µM (≈ 2.74 µg/mL)
Minimal inhibitory concentration (Klebsiella pneumoniae): 1 µM (≈ 2.74 µg/mL)
MICs relative to B22a [2]: approximately two-fold better

ARKKLKKLAKKLSPVIPLLKLG-NH2 [Peptide B22m2]
MIC (Escherichia coli): 4 µM
MIC (Pseudomonas aeruginosa): 4 µM
Viable colony formation, E. coli ATCC 25922 (E. coli ATCC 25922): 8.7 × 10^4
Fold reduction, E. coli ATCC 25922 (E. coli ATCC 25922): 9
Reduction of viable colony formation by P. aeruginosa (P. aeruginosa PAO1): more than 2 logs
Viable colony formation, P. aeruginosa PAO1 (P. aeruginosa PAO1): 7.3 × 10^3
Fold reduction, P. aeruginosa PAO1 (P. aeruginosa PAO1): 164

Ac-FRKKLKKLFKKLSPVIPLLKLG-NH2 [AB22a]
Toxicity signs in mice injected with peptide [1]: no obvious effects on mice behavior or appearance
Toxicity signs in mice injected with peptide ([1]; listed as AB22N): no obvious symptoms were observed

Colistin [reference compound]
Killing of E. coli Top10pHNSHP45 (E. coli Top10pHNSHP45; 2 μM, 5 minute incubation (FIG. 12A)): resistant
Reduction of Top10pHNSHP45 colony formation (E. coli Top10pHNSHP45): little effect
MIC (Klebsiella pneumoniae; Table 8, clinical isolate 262 (NDM1+)): > 8 µg/mL
MIC (Klebsiella pneumoniae; Table 8, clinical isolate 284): 16 µg/mL
MIC (Klebsiella pneumoniae; Table 8, clinical isolate 330): > 16 µg/mL
MIC (Klebsiella pneumoniae; Table 8, clinical isolate 361): > 16 µg/mL
MIC (Klebsiella pneumoniae; Table 11, clinical isolate 265): >8 µg/mL
MIC (Klebsiella pneumoniae; Table 11, clinical isolate 284): 16 µg/mL
MIC (Klebsiella pneumoniae; Table 11, clinical isolate 330): >16 µg/mL
MIC (Klebsiella pneumoniae; Table 11, clinical isolate 361): >16 µg/mL

FRKKLKKLAKKLSPVIPLLKLG-NH2 [Peptide B22m1]
MIC (Escherichia coli): 2 µM
MIC (Pseudomonas aeruginosa): 2 µM
Killing of E. coli compared with B22a (E. coli ATCC 25922): comparable killing
Viable colony formation, E. coli ATCC 25922 (E. coli ATCC 25922): 4.7 × 10^5
Fold reduction, E. coli ATCC 25922 (E. coli ATCC 25922): 170
Growth rate of P. aeruginosa (P. aeruginosa): perceptibly reduced
Killing of P. aeruginosa compared with B22a (P. aeruginosa PAO1): comparable killing
Viable colony formation, P. aeruginosa PAO1 (P. aeruginosa PAO1): <20
Fold reduction, P. aeruginosa PAO1 (P. aeruginosa PAO1): >6000

FRKKLKKLFKKLSPVIPLLKLG [Peptide B22]
MIC (Enterococcus faecalis): >32 µM
MIC (Pseudomonas aeruginosa): 2 µM
MIC (Staphylococcus aureus): >64 µM
MICs for two strains of S. aureus (Staphylococcus aureus): ≥ 64 µM
MICs with the carbapenem-resistant K. pneumoniae (Klebsiella pneumoniae): ≤ 4 µM
Minimal inhibitory concentration (Serratia marcescens): >32 µM
Symptoms of mice treated with B22 alone (Vibrio vulnificus): no symptom throughout the experiment
MIC (Enterobacter cloacae): 2 µM
Minimal inhibitory concentration (Enterobacter cloacae): 4 µM

FRKKLKKLFKKLSPVIPLLKLG-NH2 [Peptide B22a]
Toxicity signs in mice injected with peptide [1]: did not exhibit distress or signs of toxicity
MIC (Escherichia coli): 2 µM
MIC (Pseudomonas aeruginosa): 2 µM
Minimal inhibitory concentration (Pseudomonas aeruginosa): 2 µM
Minimal inhibitory concentration (Klebsiella pneumoniae): 2 µM
Minimal inhibitory concentration (Serratia marcescens): >32 µM
Minimal inhibitory concentration (Enterobacter cloacae): 4 µM

GLRKKFRKTRKRIQKLGRKIGKTGRKVWKAWREYGQIPYPCRI [CAP-11, reference compound]
Minimal inhibitory concentration (Escherichia coli): >32 µg/mL
Number of strains inhibited at 16 μg/ml (19 Gram-negative strains): 16/19

GRFKRFRKKLKKLFKKLSPVIPLL [BMAP-24]
MIC (Enterococcus faecalis): 4 µM
Viable colonies of Top10pHNSHP45 relative to BMAP27B (E. coli Top10pHNSHP45; 2 μM (FIG. 13)): reduced the number of viable colonies relative to BMAP27B
MIC (Staphylococcus aureus): >64 µM
MICs for two strains of S. aureus (Staphylococcus aureus): ≥ 64 µM
MICs with the carbapenem-resistant K. pneumoniae (Klebsiella pneumoniae): ≤ 4 µM
IL-6 production (Toll-like receptor 3): do not enhance
IL-8 production (Toll-like receptor 3): do not enhance
MIC (Enterobacter cloacae): 2 µM

GRFKRLRKKLKKLFKKLSPVIPLLHLG [BMAP-27B]
Cytotoxicity, MTT assay (Cultured human cells): no increased cytotoxicity compared to the controls
MIC (Pseudomonas aeruginosa): 4 µM
Minimal inhibitory concentration (Pseudomonas aeruginosa): 4 µM
MIC (Staphylococcus aureus): >64 µM
MIC (Enterobacter cloacae): 4 µM
Minimal inhibitory concentration (Enterobacter cloacae): 4 µM
RBC lysis [3]: decreased RBC lysis compared to the control H2O

LLGDFFRKSKEKIGKEFKRIVQRIKDFLR [LL-29]
Number of strains inhibited at 16 μg/ml (19 Gram-negative strains): 4/19

RGLRRLGRKIAHGVKKCGPTVLRIIRIAGC [SMAP-29C]
Growth of V. fischeri (V. fischeri): growth reduction correlation to the concentration of SMAP-29C
Growth of V. harveyi (V. harveyi): growth reduction correlation to the concentration of SMAP-29C
Reduction of Top10pHNSHP45 colony formation (E. coli Top10pHNSHP45): several logs
Growth of V. angustum (V. angustum): growth reduction correlation to the concentration of SMAP-29C

RLGNFFRKVKEKIGGGLKKVGQKIKDFLGNLVPRTAS [RL-37]
Number of strains inhibited at 16 μg/ml (19 Gram-negative strains): 7/19

— patent publication US10624947B2, “Bactericidal peptides and uses thereof” (INDIANA UNIVERSITY RESEARCH AND TECHNOLOGY CORPORATION, priority 2016, dated 2020)
